Experimental findings from patent US20110207771A1, “N-(L-ALKYL-2-PHENYLETHYL)-CARBOXAMIDE DERIVATIVES AND USE THEREOF AS FUNGICIDES” (SYNGENTA CROP PROTECTION, INC., priority 2006, published 2011) are described below.

One series deals with Pyrenophora teres. Briefly: Example B-15: action against Pyrenophora teres (net blotch) on barley leaf segments. Format: in vivo. To be noted: 4 days after inoculation. The procedure: Example B-15: Action Against Pyrenophora teres (Net Blotch) on Barley Barley leaf segments are placed on agar in multiwell plates (24-well format) and sprayed with test solutions (200 ppm, […], and 20 ppm of active ingredient). After drying, the leaf disks are inoculated with a spore suspension of the fungus. After appropriate incubation the activity of a compound is assessed 4 days after inoculation as preventive fungicidal activity (in %).

The next series relates to Botrytis cinerea. Briefly: Example B-11: action against Botrytis cinerea, fungal growth assay. It is filed as cell-based. To be noted: 48-72 hrs. The procedure:
(§1) Example B-11: Action Against Botrytis cinerea—Fungal Growth Assay Conidia of the fungus from cryogenic storage were directly mixed into nutrient broth (PDB potato dextrose broth). After placing a (DMSO) solution of the test compounds into a microtiter plate (96-well format) the nutrient broth containing the fungal spores was added. The test plates were incubated at 24° C. and the inhibition of growth was determined photometrically after 48-72 hrs. The activity of a compound is expressed as fungal growth inhibition (0=no growth inhibition, ratings of 80% to 99% mean good to very good inhibition, 100%=complete inhibition).

Series [1] concerns Monographella nivalis (Fusarium nivale, Microdochium nivale). Briefly: Example B-14: action against Monographella nivalis, fungal growth assay. Format: cell-based. To be noted: 72 hrs. The procedure: Example B-14: Action Against Monographella nivalis (Anamorph: Fusarium nivale, Microdochium nivale; Snow Mould)—Fungal Growth Assay After placing a DMSO-solution (2% Dimethylsulfoxid, 0.025% Tween 20) of the test compounds into a microtiter plate (96-well format) the nutrient broth containing the fungal spores was added. 40.000 conidia/ml of the fungus from cryogenic storage were directly mixed into nutrient broth (PDB potato dextrose broth). The compounds were tested at a variety of application rates; these rates are shown in parts per million (ppm) in the table. The test plates were incubated at 24° C. and the inhibition of growth was measured photometrically after 72 hrs (0=no growth inhibition, ratings of 80% to 99% mean good to very good inhibition, 100%=complete inhibition).

The test system of a further series is Septoria tritici. Description: Example B-13: action against Septoria tritici, fungal growth assay. Format: cell-based. To be noted: for fungal growth inhibition: 72 hrs. As to the method:
as §1, with “B-13:” for “B-11:”, “Septoria tritici—Fungal” for “Botrytis cinerea—Fungal”, “72” for “48-72”

Series [2] has as its system Mycosphaerella arachidis (Cercospora arachidicola). Briefly: Example B-12: action against Mycosphaerella arachidis, fungal growth assay. Format: cell-based. To be noted: 6-7 days. The procedure: as §1, with “B-12:” for “B-11:”, “Mycosphaerella arachidis (Early Leaf Spot of Groundnut; Cercospora arachidicola (Anamorph))—Fungal” for “Botrytis cinerea—Fungal”, “measured” for “determined”, “6-7 days.” for “48-72 hrs.”

In general, melting point refers to the temperature, or range, at which the solid turns liquid. Consider `CC(Cc1ccc(Cl)cc1Cl)NC(=O)c1cn(C)nc1C(F)F` (stereo not shown) [Compound 1.197, 3-difluoromethyl-1-methyl-1H-pyrazole-4-carboxylic acid [2-(2,4-dichlorophenyl)-1-methyl-ethyl]-amide], for which the melting point came to 157 °C.
In general, inhibition of growth refers to how much of the control response was suppressed. As for `CC(Cc1ccc(Cl)cc1Cl)NC(=O)c1cn(C)nc1C(F)F` (single isomer, unassigned; (+)) [(+)-3-difluoromethyl-1-methyl-1H-pyrazole-4-carboxylic acid ] [(+)-3-difluoromethyl-1-methyl-1H-pyrazole-4-carboxylic acid [2-(2,4-dichlorophenyl)-1-methyl-ethyl]-amide], the preventive fungicidal activity in the series on Pyrenophora teres (20 ppm), in the series with Pyrenophora teres (60 ppm) and in the series with Pyrenophora teres (200 ppm) was 100% in each case. In addition, the fungal growth inhibition in the series with Botrytis cinerea (2 ppm) is 80%; in the series on Botrytis cinerea (6 ppm), 100%; with Botrytis cinerea (20 ppm) it was 100%. In addition, the inhibition of growth in series [1] (2 ppm), in series [1] (6 ppm) and in series [1] (20 ppm) was 100% in each case.
For the compound `Cn1cc(C(=O)NC2(Cc3ccc(Cl)cc3Cl)CC2)c(C(F)F)n1` [Compound 1.231, 3-difluoromethyl-1-methyl-1H-pyrazole-4-carboxylic acid [1-(2,4-dichlorobenzyl)-cyclopropyl]-amide], the melting point lay within 165 to 168 °C.
`CC(Cc1ccc(-c2ccc(Cl)cc2)cc1Cl)NC(=O)c1cn(C)nc1C(F)F` (stereo not shown) [Compound 1.462, 3-difluoromethyl-1-methyl-1H-pyrazole-4-carboxylic acid [2-(3,4′-dichlorobiphenyl-4-yl)-1-methyl-ethyl]-amide] yielded a melting point of 96 to 98 °C.
In the case of `CC(Cc1ccc(Cl)cc1Cl)NC(=O)c1cn(C)nc1C(F)F` (single isomer, unassigned; (-)) [(−)-3-difluoromethyl-1-methyl-1H-pyrazole-4-carboxylic acid ] [(−)-3-difluoromethyl-1-methyl-1H-pyrazole-4-carboxylic acid [2-(2,4-dichlorophenyl)-1-methyl-ethyl]-amide], the preventive fungicidal activity is 80% in the series with Pyrenophora teres (20 ppm), 100% with Pyrenophora teres (60 ppm) and 100% in the series with Pyrenophora teres (200 ppm). Further, the fungal growth inhibition is recorded as 0% in the series with Botrytis cinerea (2 ppm); 20% with Botrytis cinerea (6 ppm); 20% in the series on Botrytis cinerea (20 ppm); 0% in the series on Septoria tritici (2 ppm); 80% in the series with Septoria tritici (6 ppm); 100% in the series on Septoria tritici (20 ppm). Moreover, the results for the fungal growth inhibition in series [2] (2 ppm), in series [2] (6 ppm) and in series [2] (20 ppm) were 0%, 50% and 80%, respectively. Further, the inhibition of growth is 0% in series [1] (2 ppm), 0% in series [1] (6 ppm) and 20% in series [1] (20 ppm).
The inhibition is the drop in the measured response relative to a control, in per cent. A lower inhibition goes with a response near the control. For `CC(Cc1ccc(Cl)cc1Cl)NC(=O)c1cn(C)nc1C(F)F` (single isomer, unassigned; (+)) [(+)-3-difluoromethyl-1-methyl-1H-pyrazole-4-carboxylic acid [2-(2,4-dichlorophenyl)-1-methyl-ethyl]-amide], at 6 ppm the inhibition with Septoria tritici (Zymoseptoria tritici, 72 h, 6 ppm) was 100%. Moreover, the inhibition at 20 ppm was 100% in the series on Septoria tritici (Zymoseptoria tritici, 72 h, 20 ppm) and 100% in series [2] (Mycosphaerella arachidis, 20 ppm).
For the compound `CC(Cc1ccc(Br)cc1Cl)NC(=O)c1cn(C)nc1C(F)F` (stereo not shown) [Compound 1.451, 3-difluoromethyl-1-methyl-1H-pyrazole-4-carboxylic acid [2-(4-bromo-2-chlorophenyl)-1-methyl-ethyl]-amide], the melting point was 183 to 184 °C.
